In brackets after ≈: the same amount, converted by molar mass. Activity calls are given as the source filed them. No cut-off for these calls is given here.
What was measured:
[1] = system: Acinetobacter baumannii; test: Synergistic antibacterial activity against Acinetobacter baumannii ATCC 19606 infected in female Balb/c mouse model assessed as increase in animal survival at 64 mg/kg, iv administered every 12 hrs in presence of 0.5 mg/kg polymyxin-E and measured for 7 days; assay type: functional, organism-based
[2] = system: Enterococcus faecalis; test: Antimicrobial activity against vancomycin-resistant Enterococcus faecalis ATCC 51299 assessed as minimum inhibitory concentration incubated for 18 hrs by broth microdilution method; assay type: functional
[3] = system: Acinetobacter baumannii; test: Antibacterial activity against Acinetobacter baumannii ATCC 19606 infected in female Balb/c mouse model assessed as increase in animal survival at 64 mg/kg, iv administered every 12 hrs and measured for 7 days; assay type: functional, organism-based
[4] = system: Bacillus subtilis; test: Antimicrobial activity against Bacillus subtilis ATCC 20678 incubated for 18 hrs by broth microdilution method; assay type: functional
[5] = system: Acinetobacter baumannii; test: Antimicrobial activity against Acinetobacter baumannii ATCC 19606 incubated for 18 hrs by broth microdilution method; assay type: functional
[6] = system: Acinetobacter baumannii; test: Synergistic antimicrobial activity against Acinetobacter baumannii ATCC 19606 assessed as fractional inhibitory concentration index in presence of polymyxin E incubated for 18 to 20 hrs by chequerboard assay; assay type: functional; conditions: time 18-20 hrs
[7] = system: Staphylococcus aureus; test: Antimicrobial activity against methicillin/ofloxacin-resistant Staphylococcus aureus ATCC 43300 assessed as minimum inhibitory concentration incubated for 18 hrs by broth microdilution method; assay type: functional
[8] = system: Acinetobacter baumannii; test: Synergistic antibacterial activity against Acinetobacter baumannii ATCC 19606 assessed as fold change in polymyxin-E MIC at 2 microg/ml incubated for 18 hrs by broth microdilution method relative to polymyxin-E alone; assay type: functional; conditions: dose 2 µg/ml
[9] = system: Acinetobacter baumannii; test: Synergistic antibacterial activity against Acinetobacter baumannii ATCC 19606 assessed as fold change in polymyxin-E MIC at 16 microg/ml incubated for 18 hrs by broth microdilution method relative to polymyxin-E alone; assay type: functional; conditions: dose 16 µg/ml
[10] = system: Mycolicibacterium smegmatis; test: Antibacterial activity against Mycobacterium smegmatis ATCC 704 assessed as inhibition of bacterial growth incubated for 18 hrs by broth microdilution method; assay type: functional
[11] = system: Lactiplantibacillus plantarum; test: Antibacterial activity against Lactobacillus plantarum assessed as inhibition of bacterial growth incubated for 18 hrs by broth microdilution method; assay type: functional
[12] = system: Mycolicibacterium smegmatis; test: Antibacterial activity against Mycobacterium smegmatis MC 2155 assessed as inhibition of bacterial growth incubated for 18 hrs by broth microdilution method; assay type: functional
[13] = system: Bacillus subtilis; test: Antibacterial activity against Bacillus subtilis ATCC 6633 assessed as inhibition of bacterial growth incubated for 18 hrs by broth microdilution method; assay type: functional
[14] = system: Enterococcus faecalis; test: Antibacterial activity against Enterococcus faecalis ATCC 51299 assessed as inhibition of bacterial growth incubated for 18 hrs by broth microdilution method; assay type: functional
[15] = system: Lacticaseibacillus rhamnosus; test: Antibacterial activity against Lactobacillus rhamnosus assessed as inhibition of bacterial growth incubated for 18 hrs by broth microdilution method; assay type: functional
[16] = system: Mycolicibacterium smegmatis; test: Antibacterial activity against Mycobacterium smegmatis ARC 700044 assessed as inhibition of bacterial growth incubated for 18 hrs by broth microdilution method; assay type: functional
[17] = system: Enterococcus faecalis; test: Antibacterial activity against Enterococcus faecalis ATCC 29212 assessed as inhibition of bacterial growth incubated for 18 hrs by broth microdilution method; assay type: functional
[18] = system: Listeria monocytogenes; test: Antibacterial activity against Listeria monocytogenes assessed as inhibition of bacterial growth incubated for 18 hrs by broth microdilution method; assay type: functional
[19] = system: Bacillus subtilis; test: Antibacterial activity against Bacillus subtilis 168 assessed as inhibition of bacterial growth incubated for 18 hrs by broth microdilution method; assay type: functional
[20] = system: Bacillus subtilis; test: Antibacterial activity against Bacillus subtilis CMCC(B) 63501 assessed as inhibition of bacterial growth incubated for 18 hrs by broth microdilution method; assay type: functional

| Structure (SMILES) | MIC [2] | MIC [4] | MIC [5] | fractional inhibitory concentration index (FICI) [6] | MIC [7] | other results |
| --- | --- | --- | --- | --- | --- | --- |
| Fc1ccc(-c2csc(Nc3ccc(C(F)(F)F)cc3)n2)c(F)c1 | 4 µg/mL (≈ 11.2 µM) | 4 µg/mL (≈ 11.2 µM) | > 256 µg/mL | 0.14 | 4 µg/mL (≈ 11.2 µM) | Activity [1]: inactive; Activity [3]: inactive; fold change (FC) [8]: 8; fold change (FC) [9]: 16 |
| CN[C@H](CC(C)C)C(=O)N[C@H]1C(=O)N[C@@H](CC(N)=O)C(=O)N[C@H]2C(=O)N[C@H]3C(=O)N[C@H](C(=O)N[C@H](C(=O)O)c4cc(O)cc(O)c4-c4cc3ccc4O)[C@H](O)c3ccc(c(Cl)c3)Oc3cc2cc(c3O[C@@H]2O[C@H](CO)[C@@H](O)[C@H](O)[C@H]2O[C@H]2C[C@](C)(N)[C@H](O)[C@H](C)O2)Oc2ccc(cc2Cl)[C@H]1O [VANCOMYCIN] | > 256 µg/mL | 1 µg/mL (≈ 0.69 µM) |  |  |  | MIC [10]: 1 µg/mL (≈ 0.69 µM); MIC [11]: 0.5 µg/mL (≈ 0.345 µM); MIC [12]: 2 µg/mL (≈ 1.38 µM); MIC [13]: 1 µg/mL (≈ 0.69 µM); MIC [14]: 2 µg/mL (≈ 1.38 µM); MIC [15]: 1 µg/mL (≈ 0.69 µM); MIC [16]: 2 µg/mL (≈ 1.38 µM); MIC [17]: 2 µg/mL (≈ 1.38 µM); MIC [18]: 2 µg/mL (≈ 1.38 µM); MIC [19]: 1 µg/mL (≈ 0.69 µM); MIC [20]: 2 µg/mL (≈ 1.38 µM) |
| Fc1cc(Nc2nc(-c3ccncc3)cs2)cc(C(F)(F)F)c1 | 256 µg/mL (≈ 754 µM) | 256 µg/mL (≈ 754 µM) | 128 µg/mL (≈ 377 µM) | 1.031 | 64 µg/mL (≈ 189 µM) |  |
| Fc1cc(Nc2nc(-c3ccccn3)cs2)cc(C(F)(F)F)c1 | 64 µg/mL (≈ 189 µM) | 0.5 µg/mL (≈ 1.47 µM) | 64 µg/mL (≈ 189 µM) | 0.078 | 1 µg/mL (≈ 2.95 µM) |  |
| Fc1ccc(-c2csc(Nc3cccnc3)n2)c(F)c1 | 256 µg/mL (≈ 885 µM) | 256 µg/mL (≈ 885 µM) | 128 µg/mL (≈ 442 µM) | 1.031 | 128 µg/mL (≈ 442 µM) |  |
| COc1cc(Nc2nc(-c3ccc(F)cc3F)cs2)ccc1C(F)(F)F | 2 µg/mL (≈ 5.18 µM) | 2 µg/mL (≈ 5.18 µM) | > 256 µg/mL | 0.187 | 2 µg/mL (≈ 5.18 µM) |  |
| CC(C)(C)c1csc(Nc2cc(F)cc(C(F)(F)F)c2)n1 | 8 µg/mL (≈ 25.1 µM) | 4 µg/mL (≈ 12.6 µM) | > 256 µg/mL | 0.156 | 8 µg/mL (≈ 25.1 µM) |  |
